Reference: US20150315179A1, “COMPOUNDS AND METHODS OF TREATING NEUROLOGICAL DISORDERS” (Torrey Pines Institute For Molecular Studies, priority 2014, published 2015)

Key:
[1] = system: sAPPα in supernatants of 7WD10 cells; test: Western blot sAPPα release assay, 7WD10 cells; type: cell-based
Description: (2). To ascertain that hits identified as a result of AlphaLISA assay are not due to artifacts of the detection system, the sAPPα levels were measured by Western blots as a secondary assay downstream of primary HTS to confirm hits or discard artifacts of the AlphaLISA assay. The assay was performed using a range of concentrations of hit compounds (10-5,000 nM). A hit compound named thiazole piperazine #244 (THPI-244) and THPI-326 induced dose-dependent increase of sAPPα in supernatants of 7WD10 cells (FIG. 1.3). […] Since compound THPI-244 increased sAPPα levels more than THPI-326, we focused on THPI-244 for further validation.
Western blot sAPPα release assay. 7WD10 cells were grown in 6-well plates and treated with test compounds and SAHA (vorinostat) at several concentrations in duplicate wells. After 24 h of drug exposure, the conditioned media (CM) was collected, centrifuged to remove cell debris and subjected to SDS-PAGE electrophoresis. sAPPα (6E10, mouse IgG from IBL America ltd) was detected using indicated antibody. To detect APP-FL holoprotein and C-terminal fragments (CTFs, CT15 antibody), the cells were lysed using lysis buffer (1% NP40) with complete protease inhibitor mix (Sigma) supplemented with sodium vanadate and microcystine. Samples were subjected to SDS-PAGE, transferred and immunoblotted with indicated antibodies and detected by enhanced chemiluminescence method. Quantification of Western blot signals was done using ImageJ software.

[2] = Brain levels after i.p. injection (LC-MS); type: in vivo, mouse
Description: (3). Since blood brain barrier (BBB) is the main obstacle for drug development for any CNS disorders, we first wanted to verify whether compound THPI-244 enters the brain. We followed protocols exactly as published previously from our laboratory (Hayes, C D et al., 2013, BMC Med. 26, 11.81). […] We generated a standard graph (FIG. 1.4 (middle)) to be used in the quantitation of THPI-244 in the brain after intraperitoneal (i.p.) injections at 0.2 mg/kg body weight.

[3] = system: PI3Kα, MAPK, PLC-γ, P75NTR pathways; test: Signal transduction analysis, NT2 cells; type: cell-based, human
Description: (2). THPI-244 increases sAPPα by a novel mechanism of upregulating TrkA, a neurotrophic receptor. Therefore, in addition to increasing neuroprotective sAPPα and decreasing toxic Aβ, THPI-244 mediated increased TrkA protein levels are expected to provide neurotrophic support. Following the validation of the effect of THPI-244 in increasing sAPPα levels in CHO cells, NT2 cells, AD fibroblasts and human primary neurons, we were interested in identifying the molecular target of THPI-244 for unraveling the molecular mechanism by which it increases sAPPα which in turn can predict toxicity profile and whether to pursue long-term studies. Increased protein levels of both native and phosphorylated form of TrkA in NT2 cells and mouse brains by THPI-244 validated TrkA as the target.

human primary neurons = test: Neurite outgrowth, Sholl analysis of dendritic intersections; type: cell-based; settings: 2DIV until 6DIV
Description: (4). The most important property of THPI-244 is its ability to increase neurite outgrowth and dendritic intersections in human primary neurons. Since both TrkA and sAPPα promote neuron growth and provide trophic support, we tested whether treatment of human primary neurons with THPI-244 induces neurite outgrowth. […] Considering an enormous potential for such an excellent results in human neurons, we did systematic analysis by also treating neurons in the presence of TrkA inhibitor to verify if the increased neurite outgrowth is mediated by TrkA receptor. Sholl analysis using ImageJ software of individual neurons (at least 30 per group) immunostained for MAP2 antibody confirmed our initial findings. […] This confirmed that THPI-244 increases TrkA protein levels which has vital role in regulating neuritic outgrowth.

[4] = system: sAPPα levels, human primary neurons transiently transfected with APP751 with Swedish mutation; test: sAPPα ELISA, human primary neurons transfected with APP751; type: cell-based
Description: (1). […] Therefore, we first used fibroblasts derived from AD patients (AG06263C, Coriell Cell repository, supported by NINDS/NIH) and exposed to THPI-244 for 24 h and measured sAPPα release by ELISA as done above for NT2 cells. […] We also confirmed dose-dependent effect of THPI-244 on sAPPα levels in human primary neurons transiently transfected with APP751 with Swedish mutation which is trafficked differently from WT APP and releases more sAPPα. Human neurons were grown on specially coated glass coverslips (cat # GG-18-PDL, NeuVitro, Germany). We could reproducibly achieve nearly 30% transfection efficiency using a nanoparticle based transfection reagent called Neuromag (cat # NM150299, OZ Biosciences, France).

[5] = system: sAPPα release from 7WD10 cells; test: AlphaLISA sAPPα release assay (pilot screen); type: cell-based; settings: 5 μM, 7WD10 cells, 24 h
Description: Pilot screen of AlphaLISA sAPPα release assay. 8 μL of assay media (DMEM supplemented with 10% FBS and 1× Penicillin/Streptomycin) containing 20,000 cells were added to all wells of the assay plate, except column 1 where only media was added. Plates were incubated for 4 h at 37° C., 5% CO2, 95% RH after which 80 nL of test compounds in DMSO or DMSO alone were added to respective wells using a pin tool device (VP Scientific, San Diego). After 24 h of incubation at 37° C., 5% CO2, 95% RH, sAPPα AlphaLISA beads were added in 10 μL of buffer, equilibrated for 1 h, and AlphaLISA signal was measured using a Biotek H4 Synergy microplate reader (Biotek Inc). Three parameters were calculated on a per-plate basis: (a) the signal-to-background ratio (S/B); (b) the coefficient for variation [CV; CV=(standard deviation/mean)×100)] for all compound test wells; and (c) the Z′-factor [31]. Nominally active compounds from the pilot screen were determined using mean plus 3 times the standard deviation (Mean+3SD) was used as the cut-off.

[6] = i.p. 0.2 mg/kg body weight, mouse

With `O=C(Cc1ccccc1)N[C@H](CNc1nc(CN2CCN(C(=O)Cc3ccccc3)CC2)cs1)c1ccccc1` [THPI-244] the “levels of APP-FL” value ([1]; CHO cells, Western blot) was “no change”, the “increase of sAPPα over untreated control cells” value ([1]; as low as 10 nM, 7WD10 supernatants) was 2 fold and the “amount remaining in the brain at 240 min” value [2, 6] was “negligible amount”. For the same compound, the “time to maximum levels in the brain” value [2, 6] was ≤ 5 min, the blood-brain barrier passage ([2]; i.p. administration, mouse brain) was “passes through the blood-brain barrier” and the “MAPK or PLC-γ pathways” value [3] was “not”. For the same compound, the PI3Kα pathway [3] was “activation”, the “number of dendritic intersections” value (human primary neurons; Sholl analysis) was “highly significant increase” and the “number of dendritic intersections” value (human primary neurons; THPI-244 with TrkA inhibitor) was “almost completely prevented the increased intersections”. The “increase of sAPPα levels” value ([4]; 50 nM) was 171%, the “increase of sAPPα levels” value ([4]; 2000 nM) was 301% and the “increase of Alpha signal (sAPPα release)” value [5] was ~2 fold.
